The subject of one assay is Caco-2 monolayers. The assay is described as follows: t10-CLA-induced loss of TEER in Caco-2 monolayers. Type of assay: cell-based, human. The following applies: t10-CLA 50 μM control = 100; μg TQ equivalents/mL: Thymoquinone 5.0, NS8 0.11, NS9 0.99, NS10 0.012, NSSpent#2 0.0005; NSSpent#1 5 μg/mL. From the text:
The protocol for growing and differentiation the human Caco-2 colon andenocarcinoma cells was a modification of Protocol 3 as described by Yamashita et al. [[…]., and Furuyama, Y. 2002) New and better protocols for a short-term Caco-2 cell culture system, J Pharm Sci 91, 669-679]. Caco-2 Human Colon Adenocarcinoma cells were obtained from ATCC (Rockville, Md.; catalog #HTB-37) and maintained in a growth media: DMEM (Dulbecco's Modified Eagles Medium 1×) containing L-glutamine, glucose; Cellgro catalog #35-010CV with the following additions: (1) Penicillin (5,000 IU/mL)/Streptomycin (5,000 μg/mL) Cellgro catalog #30-001C1, (2) 10% FBS-Fetal Bovine Serum, Characterized; Hyclone catalog #SH30071.3, and (3) 1% NEAA-Non Essential Amino Acids; Cellgro catalog #25-025-CI; cells were cultured at 37 C in a humidified air-5% CO2 atmosphere in T175 flasks. BIOCOAT^R HTS Caco-2 Assay System kits (Becton Dickinson, N.J.; catalog #354801) consisting of 24-well fibrillar collagen coated inserts and feeder trays were used in all experiments and plated as follows. Media was removed from the T175 flasks and cells were washed with 10 mLs PBS (phosphate buffered saline 1× without Ca^++, without Mg^++; Cellgro #25-053-CI). […]

Assay [1] has as its system IL-6 secretion in 3T3-L1 adipocytes. Briefly: IL-6 secretion in t10-CLA-stimulated 3T3-L1 adipocytes. Type of assay: cell-based, murine. Here is the method: The 3T3-L1 murine fibroblast model as used in Example 4 was used in this experiments. Test materials were added four hours prior to the addition of t10-CLA at a concentration of 50 μM. Following overnight incubation, the supernatant media were sampled for determination of IL-6 and adiponectin. The IL-6 secreted into the medium in response to […] stimulation was quantified using the Quantikine® Mouse IL-6 Immunoassay kit with no modifications (R&D Systems, Minneapolis, Minn.). […] All supernatant media samples were diluted 1:30 for quantification. Test materials and were assayed in duplicate, while solvent controls were replicated eight times. IL-6 and adiponectin secretion were represented relative to the IL-6 and adiponectin secretion of the t10-CLA only controls as the IL-6 and adiponectin index and differences among the means were analyzed by the student's t-test assuming a five percent probability of a type I error (Excel; Microsoft, Redmond, Wash.).

The subject of assay [2] is adiponectin secretion in 3T3-L1 adipocytes. The assay is described as follows: Adiponectin secretion in t10-CLA-stimulated 3T3-L1 adipocytes. Type of assay: cell-based, murine. The protocol: The 3T3-L1 murine fibroblast model as used in Example 4 was used in this experiments. Test materials were added four hours prior to the addition of t10-CLA at a concentration of 50 μM. Following overnight incubation, the supernatant media were sampled for determination of IL-6 and adiponectin. The adiponectin secreted into the medium was quantified using the Mouse Adiponectin Quantikine® Immunoassay kit with no modifications (R&D Systems, Minneapolis, Minn.). […] Test materials and were assayed in duplicate, while solvent controls were replicated eight times. IL-6 and adiponectin secretion were represented relative to the IL-6 and adiponectin secretion of the t10-CLA only controls as the IL-6 and adiponectin index and differences among the means were analyzed by the student's t-test assuming a five percent probability of a type I error (Excel; Microsoft, Redmond, Wash.).

For a further assay, the system named is AMPK. The assay is described as follows: AMPK activation (pT172-AMPK) in C2C12 myocytes. Type of assay: cell-based, Mouse. The note with it: 1 mM. The protocol:
Mouse C2C12 myoblasts were obtained from American Type Culture Collection (Manassas, Va.), and were maintained in Dulbecco's modified Eagle's medium (DMEM) supplemented with 10% fetal bovine serum at 37° C. under a humidified atmosphere of 5% CO2.
C2C12 cells were seeded at an initial density of 6×10^4 cells/cm^2 in 24-well plates. For two days, the cells were allowed grow to reach confluence. Following confluence, the cells were forced to differentiate into myocytes by culturing in DMEM supplemented with 2% horse serum for seven days.
On Day 8 to 10 post differentiation, C2C12 myocytes were incubated in serum-free DMEM plus 0.5% BSA (bovine serum albumin) for three hours. […]
pT^172-AMPK was quantified using the Biosource AMPK Immunoassay Kit (Camarillo, Calif.) without modification. Protein content of the cell lysates was determined with the Active Motif fluorescent protein assay reagent (Carlsbad Calif., Hoefelschweiger, B. K., Duerkop, A., and Wolfbeis, O. S, Novel type of general protein assay using a chromogenic and fluorogenic amine-reactive probe. Anal Biochem 2005, 344, 122-9). A Packard Fluorocount spectrofluorometer (Model#BF 10000, Meridan, Conn.) was used for protein determination and a MEL312e BIO-KINETICS READER (Bio-Tek Instruments, Winooski, Vt.) was used for quantification of pT^172-AMPK. […]

The mark [3] stands for this setting: t10-CLA 50 μM control = 100, μg TQ equivalents/mL: Thymoquinone 5.0, NS8 0.11, NS9 0.99, NS10 0.012, NSSpent#2 0.0005, NSSpent#1 5 μg/mL.

Consider `CCCCC/C=C\C=C\CCCCCCCCC(=O)O` (single isomer, unassigned) [t10-CLA, Trans-10,Cis12-Conjugated Linoleic Acid Isomer], for which the “Relative Loss of TEER” value in the assay on Caco-2 monolayers was 100 ± 5.81. The “increase in IL-6 secretion relative to controls” value in assay [1] (50 μM, overnight) came to 8 fold. Further, in assay [1] (setting [3]), the “IL-6 Index” value worked out at 100 ± 11. Moreover, the “reduction in adiponectin secretion relative to controls” value in assay [2] (50 μM, overnight) came to 65%. For the same molecule, the “Adiponectin Index” value in assay [2] (setting [3]) came out at 100 ± 14.
For the molecule `NC(=O)c1ncn([C@@H]2O[C@H](CO)[C@@H](O)[C@H]2O)c1N` [AICAR, 5-Aminoimidazole-4-carboxamide ribonucleoside], the “increase of pT172-AMPK relative to DMSO negative controls” value in the assay on AMPK (30 min, average over ten independent assays (95% CI=1.26-2.21)) turned out to be 1.67 fold. For the same molecule, the “activation of AMPK” value with AMPK (in assays run with N. sativa supercritical CO2 extracts) was determined as 1.45 fold.

(Values after US9180155B2, “Compositions from Nigella sativa” (Bio Nexus, Ltd, priority 2013, dated 2015).)
